Measurements from patent US8952024B2, “Herbicidal pyrimidone derivatives” (E I du Pont de Nemours and Company, priority 2009, dated 2015).

How the values were obtained:
Assay type in all cases: in vivo
[1] = test system: barnyardgrass (Echinochloa crus-galli); assay: Test A pre-/postemergence plant response
Excerpt: (§1) Seeds of barnyardgrass (Echinochloa crus-galli), large crabgrass (Digitaria sanguinalis), giant foxtail (Setaria faberii), morningglory (Ipomoea spp.), pigweed (Amaranthus retroflexus), velvetleaf (Abutilon theophrasti), wheat (Triticum aestivum) and corn (Zea mays) were planted into a blend of loam soil and sand and treated preemergence with a directed soil spray using test chemicals formulated in a non-phytotoxic solvent mixture which included a surfactant. At the same time these species were also treated with postemergence applications of test compounds formulated in the same manner.
(§2) Plants ranged in height from two to ten cm and were in the one- to two-leaf stage for the postemergence treatment. Treated plants and untreated controls were maintained in a greenhouse for approximately ten days, after which time all treated plants were compared to untreated controls and visually evaluated for injury. Plant response ratings, summarized in Table A, are based on a 0 to 100 scale where 0 is no effect and 100 is complete control. A dash (-) response means no test result.

[2] = test system: corn (Zea mays); assay: Test A pre-/postemergence plant response
Excerpt: as §1, §2

[3] = test system: giant foxtail (Setaria faberii); assay: Test A pre-/postemergence plant response
Excerpt: as §1, §2

[4] = test system: large crabgrass (Digitaria sanguinalis); assay: Test A pre-/postemergence plant response
Excerpt: as §1, §2

[5] = test system: morningglory (Ipomoea spp.); assay: Test A pre-/postemergence plant response
Excerpt: as §1, §2

[6] = test system: pigweed (Amaranthus retroflexus); assay: Test A pre-/postemergence plant response
Excerpt: as §1, §2

[7] = test system: velvetleaf (Abutilon theophrasti); assay: Test A pre-/postemergence plant response
Excerpt: as §1, §2

[8] = test system: wheat (Triticum aestivum); assay: Test A pre-/postemergence plant response
Excerpt: as §1, §2

[9] = test system: barnyardgrass (Echinochloa crus-galli); assay: Test B flooded paddy test; details: for Plant response rating, Flood, Barnyardgrass: 250 g ai/ha, flooded paddy test, visual rating on 0 to 100 scale (0 no effect, 100 complete control) after 13 to 15 days; for Plant response rating, Barnyardgrass: Flood (flooded paddy test), 62 g ai/ha, scale 0 to 100, 0 is no effect, 100 is complete control, 13 to 15 days
Excerpt: (§3) Plant species in the flooded paddy test consisted of rice (Oryza sativa), umbrella sedge (Cyperus difformis), ducksalad (Heteranthera limosa) and barnyardgrass (Echinochloa crus-galli) grown to the 2-leaf stage for testing. At the time of treatment, test pots were flooded with water to 3 cm above the soil surface, treated by application of test compounds directly to the paddy water, and then maintained at that water depth for the duration of the test.
(§4) Treated plants and controls were maintained in a greenhouse for 13 to 15 days, after which time all treated plants were visually evaluated and compared to controls. Plant response ratings, summarized in Table B, are based on a scale of 0 to 100 where 0 is no effect and 100 is complete control. A dash (-) response means no test result.

[10] = test system: ducksalad (Heteranthera limosa); assay: Test B flooded paddy test; details: for Plant response rating, Flood, Ducksalad: 250 g ai/ha, flooded paddy test, visual rating on 0 to 100 scale (0 no effect, 100 complete control) after 13 to 15 days; for Plant response rating, Ducksalad: Flood (flooded paddy test), 62 g ai/ha, scale 0 to 100, 0 is no effect, 100 is complete control, 13 to 15 days
Excerpt: as §3, §4

[11] = test system: rice (Oryza sativa); assay: Test B flooded paddy test; details: for Plant response rating, Flood, Rice: 250 g ai/ha, flooded paddy test, visual rating on 0 to 100 scale (0 no effect, 100 complete control) after 13 to 15 days; for Plant response rating, Rice: Flood (flooded paddy test), 62 g ai/ha, scale 0 to 100, 0 is no effect, 100 is complete control, 13 to 15 days
Excerpt: as §3, §4

[12] = test system: umbrella sedge (Cyperus difformis); assay: Test B flooded paddy test; details: for Plant response rating, Flood, Sedge, Umbrella: 250 g ai/ha, flooded paddy test, visual rating on 0 to 100 scale (0 no effect, 100 complete control) after 13 to 15 days; for Plant response rating, Sedge, Umbrella: Flood (flooded paddy test), 62 g ai/ha, scale 0 to 100, 0 is no effect, 100 is complete control, 13 to 15 days
Excerpt: as §3, §4

[13] = Postemergence, 125 g ai/ha, visual injury, 0 to 100 scale (0 no effect, 100 complete control), approx. ten days
[14] = Postemergence, 500 g ai/ha, 0 to 100 scale, 0 = no effect, 100 = complete control, approx. ten days
[15] = Preemergence, 125 g ai/ha, 0 to 100 scale, 0 = no effect, 100 = complete control
[16] = Preemergence, 500 g ai/ha, visual injury, 0 to 100 scale (0 no effect, 100 complete control), approx. ten days

| SMILES | Barnyardgrass plant response rating [1, 13] | Plant response rating, Barnyardgrass [1, 14] | Plant response rating, Barnyardgrass [1, 15] | Plant response rating, Barnyardgrass [1, 16] | Corn plant response rating [2, 13] | Plant response rating, Corn [2, 14] | Plant response rating, Corn [2, 15] | Plant response rating, Corn [2, 16] | Foxtail, Giant plant response rating [3, 13] | Plant response rating, Foxtail, Giant [3, 14] | Plant response rating, Foxtail, Giant [3, 15] | Plant response rating, Foxtail, Giant [3, 16] | Crabgrass, Large plant response rating [4, 13] | Plant response rating, Crabgrass, Large [4, 14] | Plant response rating, Crabgrass, Large [4, 15] | Plant response rating, Crabgrass, Large [4, 16] | Morningglory plant response rating [5, 13] | Plant response rating, Morningglory [5, 14] | Plant response rating, Morningglory [5, 15] | Plant response rating, Morningglory [5, 16] | other results |
| --- | --- | --- | --- | --- | --- | --- | --- | --- | --- | --- | --- | --- | --- | --- | --- | --- | --- | --- | --- | --- | --- |
| Cc1ccc(-n2c(-c3ccccc3)ncc(C(=O)C3=C(O)CCCC3=O)c2=O)cc1C [Compound 32] | 20 | 80 | 0 | 90 | 0 | 10 | 0 | 0 | 30 | 90 | 10 | 90 | 50 | 90 | 20 | 90 | 50 | 100 | 0 | 80 | Pigweed plant response rating [6, 13]: 100; Plant response rating, Pigweed [6, 14]: 100; Plant response rating, Pigweed [6, 15]: 30; Plant response rating, Pigweed [6, 16]: 100; Velvetleaf plant response rating [7, 13]: 100; Plant response rating, Velvetleaf [7, 14]: 100; Plant response rating, Velvetleaf [7, 15]: 20; Plant response rating, Velvetleaf [7, 16]: 70; Wheat plant response rating [8, 13]: 0; Plant response rating, Wheat [8, 14]: 30; Plant response rating, Wheat [8, 15]: 0; Plant response rating, Wheat [8, 16]: 20; Plant response rating, Flood, Barnyardgrass [9]: 40; Plant response rating, Barnyardgrass [9]: 10; Plant response rating, Flood, Ducksalad [10]: 95; Plant response rating, Ducksalad [10]: 75; Plant response rating, Flood, Rice [11]: 30; Plant response rating, Rice [11]: 0; Plant response rating, Flood, Sedge, Umbrella [12]: 90; Plant response rating, Sedge, Umbrella [12]: 75 |
| Cc1ccc(-n2c(-c3ccccc3)ncc(C(=O)C3=C(O)CCCC3=O)c2=O)c(Cl)c1 [Compound 41] | 50 | 90 | 0 | 80 | 0 | 10 | 0 | 0 | 20 | 80 | 10 | 30 | 20 | 70 | 20 | 80 | 10 | 70 | 0 | 20 | Pigweed plant response rating [6, 13]: 100; Plant response rating, Pigweed [6, 14]: 100; Plant response rating, Pigweed [6, 15]: 90; Plant response rating, Pigweed [6, 16]: 90; Velvetleaf plant response rating [7, 13]: 100; Plant response rating, Velvetleaf [7, 14]: 100; Plant response rating, Velvetleaf [7, 15]: 30; Plant response rating, Velvetleaf [7, 16]: 80; Wheat plant response rating [8, 13]: 0; Plant response rating, Wheat [8, 14]: 0; Plant response rating, Wheat [8, 15]: 0; Plant response rating, Wheat [8, 16]: 0; Plant response rating, Flood, Barnyardgrass [9]: 30; Plant response rating, Barnyardgrass [9]: 0; Plant response rating, Flood, Ducksalad [10]: 75; Plant response rating, Ducksalad [10]: 70; Plant response rating, Flood, Rice [11]: 0; Plant response rating, Rice [11]: 0; Plant response rating, Flood, Sedge, Umbrella [12]: 80; Plant response rating, Sedge, Umbrella [12]: 70 |
